Measurements taken from US6235516A, “Biocatalysts with amine acylase activity” (Novartis AG, priority 1996, dated 2001).
Values joined by “and” are separate entries in the source; they are usually repeats but may differ in a detail not shown here. Identical values can stand only once.

What was measured:
[1] = biological target: T1, acylase from Rhodococcus equi Ac6 (Rhodococcus (subgen. Prescottella) equi, UniProt A0A3S5Y3Z2); assay: Enzymatic hydrolysis of racemic amides with partially purified acylase from Rhodococcus equi Ac6; format: biochemical; design: e.e. (R)-Amide: unit not given here; details: for Selectivity E: enantioselectivity of the hydrolysis; for e.e. (S)-Amine: formed amine, analysed as acetamide; for e.e. (R)-Amide: unconverted amide, chiral HPLC
T1 construct: N-terminus […]
T1 sequence (A0A3S5Y3Z2 1-487): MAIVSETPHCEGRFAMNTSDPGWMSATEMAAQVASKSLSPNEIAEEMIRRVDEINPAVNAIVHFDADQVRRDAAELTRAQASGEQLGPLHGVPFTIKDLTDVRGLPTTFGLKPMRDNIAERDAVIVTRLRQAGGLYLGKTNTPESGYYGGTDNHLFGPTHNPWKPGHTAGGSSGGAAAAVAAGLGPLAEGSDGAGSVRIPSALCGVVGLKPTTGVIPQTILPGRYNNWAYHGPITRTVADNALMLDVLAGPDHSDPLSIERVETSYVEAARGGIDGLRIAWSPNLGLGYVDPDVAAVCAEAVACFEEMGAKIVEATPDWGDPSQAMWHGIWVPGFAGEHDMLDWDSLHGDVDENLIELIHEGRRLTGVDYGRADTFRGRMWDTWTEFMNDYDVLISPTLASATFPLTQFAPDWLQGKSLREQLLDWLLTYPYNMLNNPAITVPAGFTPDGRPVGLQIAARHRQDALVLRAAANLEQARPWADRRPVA
Procedure: (§1) To 10 ml of a 20 mM solution of each of the racemic amides shown below 1 in 0.1 M phosphate buffer pH 7.0, 5 ml (1.3 units) of the enzyme is added and the solutions are shaken at 100 rpm and 30° C. [drawing 10] [drawing 11]
(§2) When the conversion reaches about 50% (checked by HPLC) the solutions are acidified to pH 2 by adding 1 N HCl and extracted three times with dichloromethane to obtain the unconverted amides. The aqueous layers are neutralized with 1 N NaOH solution and extracted again three times with dichloromethane to recover the formed amines. Both organic phases are dried with MgSO4, filtered and the solvent is distilled off. The amides are used directly for optical purity determinations (HPLC), whereas the obtained amines are converted to the acetamides by adding 100 μl triethylamine and 100 μl acetic anhydride to each sample and then analyzed for the optical purity by "chiral" HPLC.
The experiments are carried out in the same manner as described in example 22.

[2] = system: acylase from Arthrobacter aurescens Ac5R; assay: Enzymatic hydrolysis of racemic amides with highly purified acylase from Arthrobacter aurescens Ac5R; format: biochemical; details: for Selectivity E: enantioselectivity of the hydrolysis; for e.e. (R)-Amine: formed amine, analysed as acetamide by chiral HPLC; for e.e. (S)-Amide: unconverted amide, chiral HPLC
Procedure: as §1, §2

[3] = system: whole cells of Rhodococcus globerulus K1/1; assay: Amide hydrolysis with whole cells of Rhodococcus globerulus K1/1; format: cell-based; details: for Selectivity E: enantioselectivity of the hydrolysis; for e.e. (S)-Amine: formed amine, analysed as acetamide; for e.e. (R)-Amide: unconverted amide, chiral HPLC
Text: as §2
To 50 ml of a 10 mM solution in phosphate buffer pH 7.0 of each racemic amide listed in table 16, whole cells of Rhodococcus globerulus K1/1 (each obtained from 50 ml shake flask medium (see example 21), OD660 =2.0) is added. The deacetylation is performed at 30° C. under continuous shaking (200 rpm). The reaction is monitored by HPLC and after the conversion is about 50% the reaction mixtures are worked up in the same manner as described in example 22.

[4] = system: AcR5b-acylase; assay: Dependence of the reaction velocity of the AcR5b-acylase on substrate concentration (Km, Vmax); format: biochemical, Arthrobacter aurescens AcR5b; details: for Km: 30 min incubation, pH 7; for relative maximum reaction velocity: (R)-N-acetyl-1-phenylethylamine = 100
Procedure: Activity assays are performed under the standard conditions given in example 11 with an incubation time of 30 min. using different initial concentrations of (R)-N-acetyl-1-phenylethylamine and racemic N-acetyl-(m-cyano-phenyl)ethylamine. The final AcR5b-acylase preparation obtained in example 4d, which has been diluted 20 fold with 69 mM potassium phosphate buffer, pH 7, serve as the enzyme source. The Michaelis constants (Km) and the maximum reaction velocities are calculated as described in example 9.

[5] = system: AcR5b-acylase; assay: Stability of the AcR5b-acylase during freezing, with and without cryoprotective agents; format: physicochemical, Arthrobacter aurescens AcR5b
[6] = system: K1/1 acylase; assay: Hydrolysis of racemic 2-acetylamino-1-phenyl-4-pentene with the purified K1/1 acylase; format: biochemical, Rhodococcus globerulus K1/1; details: at 50.3% conversion
Procedure: To 50 ml of a 10 mM solution of racemic 2-acetylamino-1-phenyl-4-pentene in phosphate buffer (pH 7.0) 7 ml of the K1/1 acylase are added (0.456 U), which has been purified by HIC and concentrated by ultrafiltration (example 26.5 and 26.6). The deacylation is performed at 30° C. under continuous shaking at 200 rpm. The reaction is monitored by HPLC (see example 1), and after the conversion is about 50% the solution is acidified to pH 2 with 1 N HCl and extracted three times with one volume of dichloromethane to obtain the unconverted amides. The aqueous phase is neutralized with 1 N NaOH and extracted again three times with dichloromethane to recover the formed amines. Both organic phases are dried with MgSO4, filtered and the solvent is distilled off. The amides are used directly for optical purity determinations via HPLC under the following conditions: Chiralcel OJ column, hexane/isopropanol 9:1 as the eluent, flow rate 1 ml/min., detection at 208 nm. The obtained amines are converted to the acetamides by adding […] to each sample before being also analyzed for the optical purity by HPLC.

[7] = system: R. equi Ac6; assay: Growth and induction of the acylase of Rhodococcus equi Ac6 (shake flask culture); format: cell-based; details: for induction of the acylase expression of strain Ac6: 3 g/l in basic medium; for Enzyme yield with (R)-amide as the acylase substrate / Enzyme yield with (S)-amide as the acylase substrate: basic medium + 3 g/l of the amide as inducer; for Enzyme yield with (R)-amide as the acylase substrate / Enzyme yield with (S)-amide as the acylase substrate / OD660 at cell harvest: 91 h; for OD660 at cell harvest: basic medium + 3 g/l of the amide, basic medium alone 0.46; for effect on growth of Rhodococcus equi Ac6: in the growth medium
Procedure: R. equi Ac6 is grown in basic medium containing 3 g/l (S)-N-acetyl-1-phenylethylamine or 3 g/l (R)-N-acetyl-1-phenylethylamine or no N-acetyl-1-phenylethylamine for 91 h by the shake flask culture technique described in example 1. By applying the methods given in example 1 the crude extracts are prepared and subjected to measurement of the protein concentration and the acylase activity using (S)-N-acetyl-1-phenylethylamine and (R)-N-acetyl-1-phenylethylamine as the substrates.
R. equi Ac6 cells are inoculated into three 1 l Erlenmeyer flask containing each 100 ml of basic medium with 10 g/l yeast extract and 10 g/l meat extract as additional nutrients. The cells are grown (shake flask technique see example 1) until the OD660 reaches about 2. Then the culture is split into eight portions of 25 ml and (S)-N-acetyl-1-phenylethylamine is added to the shake flasks in final concentrations of 0-7 g/l in steps of 1 g/l. The cells are further incubated for 25 h. Then the protein concentrations and acylase activities of the crude extracts are measured as described in example 1.
In another experiment (S)-N-acetyl-1-phenylethylamine is added to the culture medium in final concentrations of 1 to 5 g/l in steps of 1 g/l directly after inoculation to one series of shake flasks (see example 1) and after 72 h of growth to another. Basic medium without peptone supplemented with 20 g/l meat extract and 20 g/l yeast extract is used. 96 h after inoculation the cells are harvested by centrifugation and the protein concentration and acylase activity in the crude extract are measured (see example 1).

[8] = AcR5b-acylase frozen 2.5 h at -20° C. with the cryoprotective agent of the label (label AcR5b-acylase = none)
[9] = AcR5b-acylase frozen 2.5 h at -80° C. with the cryoprotective agent of the label (label AcR5b-acylase = none)
[10] = AcR5b-acylase frozen 9 days at -20° C. with the cryoprotective agent of the label (label AcR5b-acylase = none)
[11] = AcR5b-acylase frozen 9 days at -80° C. with the cryoprotective agent of the label (label AcR5b-acylase = none)

CC(=O)NC(C)c1cccc(C#N)c1 (racemic) [Substrate 2a]
Selectivity E [1]: > 500
e.e. (S)-Amine [1]: > 99.9
e.e. (R)-Amide [1]: 85.5
Selectivity E [2]: 60
e.e. (R)-Amine [2]: 91.5
e.e. (S)-Amide [2]: 82.4

CC(=O)NC(C)c1ccc(C#N)cc1 (racemic) [Substrate 3a]
Selectivity E [1]: > 500
e.e. (S)-Amine [1]: > 99.9
e.e. (R)-Amide [1]: 97.4
Selectivity E [2]: 320
e.e. (R)-Amine [2]: 95.0
e.e. (S)-Amide [2]: > 99.9

CCC(NC(C)=O)c1ccccc1 (racemic) [Substrate 4a]
Selectivity E [3]: 140
e.e. (S)-Amine [3]: 90.0
e.e. (R)-Amide [3]: > 99.9
Selectivity E [1]: > 500
e.e. (S)-Amine [1]: 98.5
e.e. (R)-Amide [1]: > 99.9
Selectivity E [2]: > 500
e.e. (R)-Amine [2]: > 99.9
e.e. (S)-Amide [2]: 87.4

CC(=O)NC1CCc2ccccc21 (racemic) [Substrate 5a]
Selectivity E [1]: 65
e.e. (S)-Amine [1]: 88.2
e.e. (R)-Amide [1]: 96.7
Selectivity E [2]: 180
e.e. (R)-Amine [2]: 95.7
e.e. (S)-Amide [2]: 96.1

CC(=O)NC1CCOc2ccccc21 (racemic) [Substrate 6a]
Selectivity E [3]: 290
e.e. (S)-Amine [3]: 93.5
e.e. (R)-Amide [3]: > 99.9
Selectivity E [2]: 32
e.e. (R)-Amine [2]: 90.5
e.e. (S)-Amide [2]: 46.6

CC(=O)NC(C)c1ccc2c(c1)OCO2 (racemic) [Substrate 8a]
Selectivity E [1]: 280
e.e. (S)-Amine [1]: 97.8
e.e. (R)-Amide [1]: 90.1
Selectivity E [2]: 60
e.e. (R)-Amine [2]: 91.5
e.e. (S)-Amide [2]: 82.4

CC(=O)NC(C)CCc1ccccc1 (racemic) [Substrate 9a]
Selectivity E [1]: 230
e.e. (S)-Amine [1]: 92.1
e.e. (R)-Amide [1]: > 99.9

C=CCC(Cc1ccccc1)NC(C)=O (racemic) [Substrate 10a]
Selectivity E [3]: 70
e.e. (S)-Amine [3]: 90.0
e.e. (R)-Amide [3]: 95.7

CCCC(Cc1ccccc1)NC(C)=O (racemic) [Substrate 11a]
Selectivity E [3]: 35
e.e. (S)-Amine [3]: 77.8
e.e. (R)-Amide [3]: 97.8

CCC(Cc1ccccc1)NC(C)=O (racemic) [Substrate 12a]
Selectivity E [3]: 87
e.e. (S)-Amine [3]: 93.0 and 87.9
e.e. (R)-Amide [3]: 90.7 and > 99.9

CC(=O)NC(C)c1cccc(C#N)c1 (racemic) [racemic (m-cyano) derivative, N-acetyl-(m-cyano-phenyl)ethylamine]
Km [4]: 10.4 mM
relative maximum reaction velocity [4]: 23%

OCC(O)CO [5% Glycerol, Glycerol]
Relative activity (%) [5, 8]: 100%
Relative activity (%) [5, 9]: 100%
Relative activity (%) [5, 10]: 89%
Relative activity (%) [5, 11]: 97%

N.N.O=S(=O)(O)O [10% (NH4)2 SO4, (NH4)2 SO4]
Relative activity (%) [5, 8]: 100%
Relative activity (%) [5, 9]: 92%
Relative activity (%) [5, 10]: 81%
Relative activity (%) [5, 11]: 83%

OC[C@H]1O[C@@](CO)(O[C@H]2O[C@H](CO)[C@@H](O)[C@H](O)[C@H]2O)[C@@H](O)[C@@H]1O [10% Saccharose, Saccharose]
Relative activity (%) [5, 8]: 100%
Relative activity (%) [5, 9]: 100%
Relative activity (%) [5, 10]: 100%
Relative activity (%) [5, 11]: 92%

OCC(O)CO [50% Glycerol, Glycerol]
Relative activity (%) [5, 8]: 77%
Relative activity (%) [5, 9]: 100%
Relative activity (%) [5, 10]: 98%
Relative activity (%) [5, 11]: 90%

C=CC[C@H](Cc1ccccc1)NC(C)=O [(R)-N-2-acetylamino-1-phenyl-4-pentene]
ee of the unconverted amide [6]: 98.8 % ee

CC(=O)N[C@H](C)c1ccccc1 [(R)-N-acetyl-1-phenylethylamine]
Km [4]: 5.7 mM
relative maximum reaction velocity [4]: 100%
induction of the acylase expression of strain Ac6 [7]: not effective as an inducer
Enzyme yield with (R)-amide as the acylase substrate [7]: 0 U/lculture broth
Enzyme yield with (S)-amide as the acylase substrate [7]: 0 U/lculture broth
OD660 at cell harvest [7]: 0.19
effect on growth of Rhodococcus equi Ac6 [7]: inhibits the growth of the bacterium

C=CC[C@H](N)Cc1ccccc1 [(S)-2-amino-1-phenyl-4-pentene]
ee of the formed amine [6]: 87.4 % ee

CC(=O)N[C@@H](C)c1ccccc1 [(S)-N-acetyl-1-phenylethylamine]
maximal acylase production ([7]; 2 g/l inducer added 72 h after inoculation, harvest 96 h): 20 U/lculture medium
induction of the acylase expression of strain Ac6 [7]: has to be present in the growth medium to induce the acylase expression
maximal acylase yield ([7]; 3 g/l inducer added directly after inoculation, harvest 96 h): 60 U/lculture medium
Enzyme yield with (R)-amide as the acylase substrate [7]: < 0.4 U/lculture broth
Enzyme yield with (S)-amide as the acylase substrate [7]: 38.2 U/lculture broth
OD660 at cell harvest [7]: 1.52
effect on growth of Rhodococcus equi Ac6 [7]: inhibits the growth of the cells
